From ChEMBL document CHEMBL1147856, “Synthesis, determination of the absolute configuration of tonkinelin, and inhibitory action with bovine heart mitochondrial complex I” (Bioorg Med Chem, 2007)

Experiment: Inhibition of NADH-ubiquinone oxidoreductase activity in bovine heart submitochondrial particles
Design: species or system Bos taurus

| SMILES | IC50 |
| --- | --- |
| CCCCCCCCCCCC[C@H](O)[C@@H](O)CC[C@@H](O)[C@H](O)CCCCCCCCCCCCC1=C[C@H](C)OC1=O [DIHYDROXY-COHIBIN A] | 0.02 µM |
| CCCCCCCCCCCCCCCC[C@H](O)[C@@H](O)CCCCCCCCCCCCCCC1=C[C@H](C)OC1=O | 0.58 µM |
| CCCCCCCCCC[C@@H](O)[C@@H]1CC[C@@H]([C@@H]2CC[C@@H]([C@H](O)CCCCCCCCCC(O)CC3=CC(C)OC3=O)O2)O1 (stereo not given in full) [BULLATACIN] | 0.00083 µM |
| CCCCCCCCCCCCCCCC[C@@H](O)[C@H](O)CCCCCCCCCCCCCCC1=C[C@H](C)OC1=O [TONKINELIN] | 0.69 µM |
| CCCCCCCCCCCC[C@H](O)[C@@H]1CC[C@H]([C@H](O)CCCCCCCCCCCCC2=C[C@H](C)OC2=O)O1 [CIS-SOLAMIN] | 0.0026 µM |
